Laboratory results as given in patent publication US11066414B2, “Cot modulators and methods of use thereof” (Gilead Sciences, Inc., priority 2015, dated 2021).

What was measured:
Human Cot = Human Cot (Homo sapiens (Human), UniProt P41279); assay: High Throughput Cot Biochemical Assay; settings: IC50 HTRF, Cot HTRF (TR-FRET) biochemical assay
TNFα = assay: Cot Monocyte TNFα Cell Based Assay; settings: Homo sapiens, Monocyte, read-out: EC50 TNF, LPS-stimulated human monocytes, TNFα

Sequence of Human Cot (P41279 30-397): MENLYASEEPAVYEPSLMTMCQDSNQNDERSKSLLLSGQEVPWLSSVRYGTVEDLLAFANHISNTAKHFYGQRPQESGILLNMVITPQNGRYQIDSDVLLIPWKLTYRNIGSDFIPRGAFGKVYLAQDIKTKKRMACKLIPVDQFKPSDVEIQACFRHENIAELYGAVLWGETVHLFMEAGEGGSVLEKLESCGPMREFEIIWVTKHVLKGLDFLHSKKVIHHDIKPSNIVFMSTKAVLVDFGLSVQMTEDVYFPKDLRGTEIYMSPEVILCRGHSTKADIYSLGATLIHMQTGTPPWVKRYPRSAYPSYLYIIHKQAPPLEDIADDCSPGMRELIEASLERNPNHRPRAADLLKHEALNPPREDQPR

| IC50 (Human Cot) | EC50 (TNFα) | Structure (SMILES) |
| --- | --- | --- |
| 4 nM | > 1000 nM | [2H][C@](Nc1cc(Cl)c2ncc(C#N)c(NCC(C)(C)C)c2c1)(c1ccc(F)nc1)c1cn(CC(=O)O)nn1 [Example 85, (S)-2-(4-(((8-chloro-3-cyano-4-(neopentylamino)quinolin-6-yl)amino)(6-fluoropyridin-3-yl)methyl-d)-1H-1,2,3-triazol-1-yl)acetic acid] |
| 1160 nM | > 1000 nM | [2H]C(Nc1cc(Cl)c2ncc(C#N)c(N[C@@H](CCC#N)c3ccccc3)c2c1)(c1ccc(F)nc1)c1cn(C2CC2)nn1 (stereo partly drawn) [Example 88, 8-chloro-4-(((S)-3-cyano-1-phenylpropyl)amino)-6-(((1-cyclopropyl-1H-1,2,3-triazol-4-yl)(6-fluoropyridin-3-yl)methyl-d)amino)quinoline-3-carbonitrile] |
| 520 nM | > 1000 nM | [2H]C(Nc1cc(Cl)c2ncc(C#N)c(N[C@H](CCC#N)c3ccccc3)c2c1)(c1ccc(F)nc1)c1cn(C2CC2)nn1 (stereo partly drawn) [Example 89, 8-chloro-4-(((R)-3-cyano-1-phenylpropyl)amino)-6-(((1-cyclopropyl-1H-1,2,3-triazol-4-yl)(6-fluoropyridin-3-yl)methyl-d)amino)quinoline-3-carbonitrile] |
| 1 nM | 18 nM | N#CCCC(Nc1c(C#N)cnc2c(Cl)cc(N[C@H](c3cn(C4CC4)nn3)c3csc4c3CCN(C3COC3)C4)cc12)c1ccccc1 (stereo partly drawn) [Example 90, 8-chloro-4-((3-cyano-1-phenyl-propyl)amino)-6-(((S)-(1-cyclopropyl-1H-1,2,3-triazol-4-yl)(6-(oxetan-3-yl)-4,5,6,7-tetrahydrothieno[2,3-c]pyridin-3-yl)methyl)amino)quinoline-3-carbonitrile] |
| 2 nM | 52 nM | CC(C)(C)CNc1c(C#N)cnc2c(Cl)cc(NC(c3cn(C4CC4)nn3)c3csc4c3CCN(C3COC3)C4)cc12 (stereo not shown) [Example 91, 8-chloro-6-(((1-cyclopropyl-1H-1,2,3-triazol-4-yl)(6-(oxetan-3-yl)-4,5,6,7-tetrahydro-thieno[2,3-c]pyridin-3-yl)-methyl)amino)-4-(neopentylamino)-quinoline-3-carbonitrile] |
| 6 nM | 65 nM | [2H][C@](Nc1cc(Cl)c2ncc(C#N)c(NC3CCOCC3(C)C)c2c1)(c1ccc(F)nc1)c1cn(C2CC2)nn1 (stereo partly drawn) [Example 92, 8-chloro-6-(((S)-(1-cyclopropyl-1H-1,2,3-triazol-4-yl)(6-fluoropyridin-3-yl)methyl-d)amino)-4-((3,3-dimethyltetrahydro-2H-pyran-4-yl)amino)quinoline-3-carbonitrile] |
| 7 nM | 74 nM | [2H]C(Nc1cc(Cl)c2ncc(C#N)c(NC(CCC#N)c3ccccc3)c2c1)(c1ccc(F)nc1)c1cn(C2CC2)nn1 (stereo not shown) [Example 93, 8-chloro-4-((3-cyano-1-phenylpropyl)amino)-6-(((1-cyclopropyl-1H-1,2,3-triazol-4-yl)(6-fluoropyridin-3-yl)methyl-d)amino)quinoline-3-carbonitrile] |
| 2 nM | 130 nM | [2H][C@](Nc1cc(Cl)c2ncc(C#N)c(Nc3cccc(Cl)c3OC)c2c1)(c1ccc(F)nc1)c1cn(C2CC2)nn1 [Example 94, (S)-8-chloro-4-((3-chloro-2-methoxyphenyl)amino)-6-(((1-cyclopropyl-1H-1,2,3-triazol-4-yl)(6-fluoropyridin-3-yl)methyl-d)amino)quinoline-3-carbonitrile] |
| 11 nM | 173 nM | [2H][C@](Nc1cc(Cl)c2ncc(C#N)c(Nc3ccc(OC)c(Cl)c3)c2c1)(c1ccc(F)nc1)c1cn(C2CC2)nn1 [Example 96, (S)-8-chloro-4-((3-chloro-4-methoxyphenyl)amino)-6-(((1-cyclopropyl-1H-1,2,3-triazol-4-yl)(6-fluoropyridin-3-yl)methyl-d)amino)quinoline-3-carbonitrile] |
| 20 nM | 358 nM | [2H][C@](Nc1cc(OC)c2ncc(C#N)c(N[C@H](CC)c3ccccc3)c2c1)(c1ccc(F)nc1)c1cn(C2CC2)nn1 [Example 97, 6-(((S)-(1-cyclopropyl-1H-1,2,3-triazol-4-yl)(6-fluoropyridin-3-yl)methyl-d)amino)-8-methoxy-4-(((R)-1-phenylpropyl)amino)-quinoline-3-carbonitrile] |
| 49 nM | 821 nM | [2H][C@](Nc1cc(OC)c2ncc(C#N)c(NCC(C)(C)C)c2c1)(c1ccc(F)nc1)c1cn(C2CC2)nn1 [Example 98, (S)-6-(((1-cyclopropyl-1H-1,2,3-triazol-4-yl)(6-fluoropyridin-3-yl)methyl-d)amino)-8-methoxy-4-(neopentylamino)quinoline-3-carbonitrile] |
| 3 nM | 143 nM | [2H][C@](Nc1cc(C#N)c2ncc(C#N)c(NCC(C)(C)C)c2c1)(c1ccc(F)nc1)c1cn(C)nn1 [Example 99, (S)-6-(((6-fluoropyridin-3-yl)(1-methyl-1H-1,2,3-triazol-4-yl)methyl-d)amino)-4-(neopentylamino)quinoline-3,8-dicarbonitrile] |
| 3 nM | 142 nM | [2H][C@](Nc1cc(C#N)c2ncc(C#N)c(N[C@H](CC#N)c3ccccc3)c2c1)(c1ccc(F)nc1)c1cn(C2CC2)nn1 [Example 100, 4-(((R)-2-cyano-1-phenylethyl)amino)-6-(((S)-(1-cyclopropyl-1H-1,2,3-triazol-4-yl)(6-fluoropyridin-3-yl)methyl-d)amino)quinoline-3,8-dicarbonitrile] |
| 5 nM | 348 nM | [2H]C(Nc1cc(Cl)c2ncc(C#N)c(N[C@H](CC)c3ccccc3)c2c1)(c1cn(C2CC2)nn1)c1scnc1C (stereo partly drawn) [Example 101, 8-chloro-6-(((1-cyclopropyl-1H-1,2,3-triazol-4-yl)(4-methylthiazol-5-yl)methyl-d)amino)-4-(((R)-1-phenylpropyl)amino)quinoline-3-carbonitrile] |
| 3 nM | 461 nM | [2H]C(Nc1cc(Cl)c2ncc(C#N)c(NCC(C)(C)C)c2c1)(c1cn(C2CC2)nn1)c1scnc1C (stereo not shown) [Example 102, 8-chloro-6-(((1-cyclopropyl-1H-1,2,3-triazol-4-yl)(4-methylthiazol-5-yl)methyl-d)amino)-4-(neopentyl-amino)quinoline-3-carbonitrile] |
| 3 nM | 133 nM | [2H]C(Nc1cc(Cl)c2ncc(C#N)c(NCC(C)(C)C)c2c1)(c1cn(C2CC2)nn1)c1ccc(F)nc1F (stereo not shown) [Example 103, 8-chloro-6-(((1-cyclopropyl-1H-1,2,3-triazol-4-yl)(2,6-difluoropyridin-3-yl)methyl-d)amino)-4-(neopentylamino)quinoline-3-carbonitrile] |
| 1 nM | 99 nM | [2H][C@@](Nc1cc(Cl)c2ncc(C#N)c(NCC(C)(C)C)c2c1)(c1cn(C2CC2)nn1)c1cccnc1F [Example 104, (S)-8-chloro-6-(((1-cyclopropyl-1H-1,2,3-triazol-4-yl)(2-fluoropyridin-3-yl)methyl-d)amino)-4-(neopentyl-amino)quinoline-3-carbonitrile] |
| 3 nM | 144 nM | [2H][C@@](Nc1cc(Cl)c2ncc(C#N)c(N[C@H](CC)c3ccccc3)c2c1)(c1cn(C2CC2)nn1)c1cccnc1F [Example 105, 8-chloro-6-(((S)-(1-cyclopropyl-1H-1,2,3-triazol-4-yl)(2-fluoropyridin-3-yl)methyl-d)amino)-4-(((R)-1-phenylpropyl)amino)quinoline-3-carbonitrile] |
| 2 nM | 76 nM | [2H]C([2H])([2H])C([2H])([2H])[C@@H](Nc1c(C#N)cnc2c(Cl)cc(N[C@@]([2H])(c3ccc(F)nc3)c3cn(C4CC4)nn3)cc12)c1ccccc1 [Example 106, 8-chloro-6-(((S)-(1-cyclopropyl-1H-1,2,3-triazol-4-yl)(6-fluoropyridin-3-yl)methyl-d)amino)-4-(((R)-1-phenylpropyl-2,2,3,3,3-d5)amino)-quinoline-3-carbonitrile] |
| 182 nM | > 10000 nM | [2H]C([2H])([2H])C([2H])([2H])[C@H](Nc1c(C#N)cnc2c(Cl)cc(N[C@@]([2H])(c3ccc(F)nc3)c3cn(C4CC4)nn3)cc12)c1ccccc1 [Example 107, 8-chloro-6-(((S)-(1-cyclopropyl-1H-1,2,3-triazol-4-yl)(6-fluoropyridin-3-yl)methyl-d)amino)-4-(((S)-1-phenyl-propyl-2,2,3,3,3-d5)amino)quinoline-3-carbonitrile] |
| 913 nM | > 10000 nM | [2H]C([2H])([2H])C([2H])([2H])[C@@H](Nc1c(C#N)cnc2c(Cl)cc(N[C@]([2H])(c3ccc(F)nc3)c3cn(C4CC4)nn3)cc12)c1ccccc1 [Example 108, 8-chloro-6-(((R)-(1-cyclopropyl-1H-1,2,3-triazol-4-yl)(6-fluoropyridin-3-yl)methyl-d)amino)-4-(((R)-1-phenyl-propyl-2,2,3,3,3-d5)amino)quinoline-3-carbonitrile] |
| 2 nM | 54 nM | [2H]C([2H])([2H])C([2H])([2H])[C@@]([2H])(Nc1c(C#N)cnc2c(Cl)cc(N[C@@]([2H])(c3ccc(F)nc3)c3cn(C4CC4)nn3)cc12)c1ccccc1 [Example 109, 8-chloro-6-(((S)-(1-cyclopropyl-1H-1,2,3-triazol-4-yl)(6-fluoropyridin-3-yl)methyl-d)amino)-4-(((R)-1-phenylpropyl-1,2,2,3,3,3-d6)amino)quinoline-3-carbonitrile] |
| 10 nM | 233 nM | [2H]C(Nc1cc(Cl)c2ncc(C#N)c(NCC(C)(C)C)c2c1)(c1cn(C2CC2)nn1)c1cc(F)cnc1C (stereo not shown) [Example 114, 8-chloro-6-(((1-cyclopropyl-1H-1,2,3-triazol-4-yl)(5-fluoro-2-methylpyridin-3-yl)methyl-d)amino)-4-(neopentylamino)quinoline-3-carbonitrile] |
